Among the data in patent EP4768482A1, “THIOBENZIMIDAZOLE DERIVATIVE OR PHARMACEUTICALLY ACCEPTABLE SALT THEREOF, AND USE THEREOF” (Korea University Research and Business Foundation, priority 2023, dated 2025) are IC50 values, retold here.

pIC50: −log10 of the molar value.

This assay concerns MDA-MB-231. The experiment in a line: MTS cell viability assay, MDA-MB-231 breast cancer cell line. The format is cell-based. Particulars: Homo sapiens, MDA-MB-231 cell line, 0-10 µM, 72 hours. As for the experimental part:
MDA-MB-231 (Cell seeding numbers: 0.8(M231) x 10^4 cells/wells (confluency ≧ 25%), which is a human triple-negative breast cancer (TNBC) cell line, and JIMT-1 (Cell seeding numbers: 0.8(JIMT) x 10^4 cells/wells (confluency ≧ 25%)), which is a HER2 positive breast cancer (HER2+ BC) cell line, were used in the experiment.
The above cell lines were cultured in an environment of 5% CO2 and 37°C in a Dulbecco's modified Eagle's medium (DMEM) including a 10% fetal bovine serum (FBS), a streptomycin-penicillin (100 U/mL), and a Fungizone (0.625 µg/mL), respectively.
The human breast cancer cell lines MDA-MB-231 and JIMT-1 were treated with thiobenzimidazole derivatives of Formulas 1-1 to 1-10 at concentrations of 0, 0.5, 1, and 5 µM, respectively, for 72 hours, and then cell viability was measured using the MTS assay technique. In the MTS assay, cells were attached to a 96-well plate for 24 hours, treated with the thiobenzimidazole derivative for 72 hours, developed with MTS (3-(4,5-dimethylthiazol-2-yl)-5-(3-carboxymethoxyphenyl)-2-(4-sulfophenyl)-2H-tetrazolium) for 4 hours, and then absorbance was measured at 490 nm using a Spectramax Plus384 microplate analyzer. The results are illustrated in FIG. 1, and as illustrated in the drawing, it was confirmed that the thiobenzimidazole derivatives of Formula 1-1 to 1-10 inhibited cell viability in a concentration-dependent manner in the human breast cancer cell lines MDA-MB-231 and JIMT-1.
The MDA-MB-231 and JIMT-1 cell lines were treated with thiobenzimidazole derivatives (Formula 1-1 to 1-4) of the disclosure at concentrations of 0, 0.01, 0.05, 0.1, 0.25, 0.5, 1, 5, and 10 µM, respectively, and then cell viability and IC50 values therefrom were confirmed. The preparation method of the cell lines and the experimental method were the same as those performed in Example 1.
(Formazan colour is commonly taken as a measure of viable cells.)
As to `COC(=O)Nc1nc2cc(Sc3ccc(N4CCC(N5CCOCC5)CC4)cc3)ccc2[nH]1` [Formula 1-1, Methyl (5-((4-(4-morpholinopiperidin-1-yl)phenyl)thio)-1H-benzo[d]imidazol-2-yl)carbamate], the pIC50 (in general, the negative decadic logarithm of the IC50, by convention in mol/L) is 6.23.
As for `COC(=O)Nc1nc2cc(Sc3ccc(N4CCOCC4)c(F)c3)ccc2[nH]1` [Formula 1-2, Methyl (5-((3-fluoro-4-morpholinophenyl)thio)-1H-benzo[d]imidazol-2-yl)carbamate], the figure is 6.76; as for `COC(=O)Nc1nc2cc(Sc3ccc(N4CCN(C)CC4)c(F)c3)ccc2[nH]1` [Formula 1-3, Methyl (5-((3-fluoro-4-(4-methylpiperazin-1-yl)phenyl)thio)-1H-benzo[d]imidazol-2-yl)carbamate], 6.23; as for `COC(=O)Nc1nc2cc(Sc3ccc(N4CCC(O)CC4)nc3)ccc2[nH]1` [Formula 1-4, Methyl (5-((6-(4-hydroxypiperidin-1-yl)pyridin-3-yl)thio)-1H-benzo[d]imidazol-2-yl)carbamate], 6.87.
